The supplement of paper PMC10307832

Tests used:
Assay in all cases: relative viability (nuclei count vs DMSO), 5 days (fraction); higher = more cells survive
NCI-H2009 = test system: NCI-H2009
Outline: (§1)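 Medians of duplicate plates are given as relative viability. That measure is the nuclei count in treated wells divided by the count in vehicle wells. Counts were taken on 4× images of lung cancer cell lines in 1536-well plates, 5 days after pin-tool dosing the day after seeding with one drug alone or a fixed anchor-drug dose plus five library-drug doses (not always all listed) in √10 steps.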

PC-14 = test system: PC-14
Outline: as §1

EKVX = test system: EKVX
Outline: as §1

LK-2 = test system: LK-2
Outline: as §1

HCC-366 = test system: HCC-366
Outline: as §1

NCI-H661 = test system: NCI-H661
Outline: as §1

LU99A = test system: LU99A
Outline: as §1

NCI-H441 = test system: NCI-H441
Outline: as §1

COR-L23 = test system: COR-L23
Outline: as §1

ABC-1 = test system: ABC-1
Outline: as §1

NCI-H1437 = test system: NCI-H1437
Outline: as §1

HARA = test system: HARA
Outline: as §1

CAL-12T = test system: CAL-12T
Outline: as §1

NCI-H2170 = test system: NCI-H2170
Outline: as §1

NCI-H838 = test system: NCI-H838
Outline: as §1

NCI-H3122 = test system: NCI-H3122
Outline: as §1

NCI-H727 = test system: NCI-H727
Outline: as §1

BEN = test system: BEN
Outline: as §1

NCI-H1666 = test system: NCI-H1666
Outline: as §1

COR-L 105 = test system: COR-L 105
Outline: as §1

201T = test system: 201T
Outline: as §1

O=C(O)c1ccc(-c2c[nH]c3ncc(-c4ccccc4)cc23)cc1C1CCCC1 + Cc1nc(NC(=O)N2CCC[C@H]2C(N)=O)sc1-c1ccnc(C(C)(C)C(F)(F)F)c1 [Alpelisib] (partner 2 µM)
relative viability (NCI-H2009; first compound 0.04 µM): 1.17
relative viability (NCI-H2009; first compound 0.1265 µM): 1.16
relative viability (NCI-H2009; first compound 0.4 µM): 1.09
relative viability (NCI-H2009; first compound 1.265 µM): 0.955
relative viability (PC-14; first compound 0.04 µM): 0.933
relative viability (PC-14; first compound 0.1265 µM): 0.897
relative viability (PC-14; first compound 0.4 µM): 0.971
relative viability (PC-14; first compound 1.265 µM): 0.886
relative viability (EKVX; first compound 0.04 µM): 0.984
relative viability (EKVX; first compound 0.1265 µM): 0.966
relative viability (EKVX; first compound 0.4 µM): 0.911
relative viability (EKVX; first compound 1.265 µM): 0.812
relative viability (LK-2; first compound 0.04 µM): 1.23
relative viability (LK-2; first compound 0.1265 µM): 0.612
relative viability (LK-2; first compound 0.4 µM): 1.19
relative viability (LK-2; first compound 1.265 µM): 1.08
relative viability (HCC-366; first compound 0.04 µM): 0.443
relative viability (HCC-366; first compound 0.1265 µM): 0.721
relative viability (HCC-366; first compound 0.4 µM): 0.653
relative viability (HCC-366; first compound 1.265 µM): 0.32
relative viability (NCI-H661; first compound 0.04 µM): 0.48
relative viability (NCI-H661; first compound 0.1265 µM): 0.676
relative viability (NCI-H661; first compound 0.4 µM): 0.675
relative viability (NCI-H661; first compound 1.265 µM): 0.703
relative viability (LU99A; first compound 0.04 µM): 0.597
relative viability (LU99A; first compound 0.1265 µM): 0.615
relative viability (LU99A; first compound 0.4 µM): 0.485
relative viability (LU99A; first compound 1.265 µM): 0.425
relative viability (NCI-H441; first compound 0.04 µM): 0.707
relative viability (NCI-H441; first compound 0.1265 µM): 0.692
relative viability (NCI-H441; first compound 0.4 µM): 0.759
relative viability (NCI-H441; first compound 1.265 µM): 0.382
relative viability (COR-L23; first compound 0.04 µM): 0.79
relative viability (COR-L23; first compound 0.1265 µM): 0.745
relative viability (COR-L23; first compound 0.4 µM): 0.742
relative viability (COR-L23; first compound 1.265 µM): 0.61
relative viability (ABC-1; first compound 0.04 µM): 0.831
relative viability (ABC-1; first compound 0.1265 µM): 1.09
relative viability (ABC-1; first compound 0.4 µM): 1.24
relative viability (ABC-1; first compound 1.265 µM): 1.2
relative viability (NCI-H1437; first compound 0.04 µM): 0.998
relative viability (NCI-H1437; first compound 0.1265 µM): 0.951
relative viability (NCI-H1437; first compound 0.4 µM): 0.914
relative viability (NCI-H1437; first compound 1.265 µM): 0.882
relative viability (HARA; first compound 0.04 µM): 0.775
relative viability (HARA; first compound 0.1265 µM): 0.988
relative viability (HARA; first compound 0.4 µM): 0.812
relative viability (HARA; first compound 1.265 µM): 0.707
relative viability (CAL-12T; first compound 0.04 µM): 1.17
relative viability (CAL-12T; first compound 0.1265 µM): 1.45
relative viability (CAL-12T; first compound 0.4 µM): 1.2
relative viability (CAL-12T; first compound 1.265 µM): 1.11
relative viability (NCI-H2170; first compound 0.04 µM): 0.812
relative viability (NCI-H2170; first compound 0.1265 µM): 0.803
relative viability (NCI-H2170; first compound 0.4 µM): 0.774
relative viability (NCI-H2170; first compound 1.265 µM): 0.584
relative viability (NCI-H838; first compound 0.04 µM): 1.08
relative viability (NCI-H838; first compound 0.1265 µM): 1.13
relative viability (NCI-H838; first compound 0.4 µM): 1.11
relative viability (NCI-H838; first compound 1.265 µM): 1.02
relative viability (NCI-H3122; first compound 0.04 µM): 0.724
relative viability (NCI-H3122; first compound 0.1265 µM): 0.825
relative viability (NCI-H3122; first compound 0.4 µM): 0.752
relative viability (NCI-H3122; first compound 1.265 µM): 0.617
relative viability (NCI-H727; first compound 0.04 µM): 0.545
relative viability (NCI-H727; first compound 0.1265 µM): 0.629
relative viability (NCI-H727; first compound 0.4 µM): 0.7
relative viability (NCI-H727; first compound 1.265 µM): 0.49
relative viability (BEN; first compound 0.04 µM): 1.28
relative viability (BEN; first compound 0.1265 µM): 1.07
relative viability (BEN; first compound 0.4 µM): 1.01
relative viability (BEN; first compound 1.265 µM): 0.913
relative viability (NCI-H1666; first compound 0.04 µM): 0.965
relative viability (NCI-H1666; first compound 0.1265 µM): 0.897
relative viability (NCI-H1666; first compound 0.4 µM): 0.892
relative viability (NCI-H1666; first compound 1.265 µM): 0.367
relative viability (COR-L 105; first compound 0.04 µM): 0.893
relative viability (COR-L 105; first compound 0.1265 µM): 1.02
relative viability (COR-L 105; first compound 0.4 µM): 1.04
relative viability (COR-L 105; first compound 1.265 µM): 0.79
relative viability (201T; first compound 0.04 µM): 1.01
relative viability (201T; first compound 0.1265 µM): 1
relative viability (201T; first compound 0.4 µM): 0.993
relative viability (201T; first compound 1.265 µM): 0.935
